Laboratory results as given in a melting point compilation (Tetko et al.; mined from patent text by program, amines drawn as free bases though some values may be those of a salt).

COc1cccc(Oc2c(Cl)ncnc2NS(=O)(=O)c2ccc(C(C)(C)C)cc2)c1 showed a melting point of 109 to 110 °C. In the case of CC(=S)NCC1CN(c2ccc(N3CCSCC3)c(F)c2)C(=O)O1 (stereo not drawn), the melting point is reported as 155 to 156 °C. With Cc1cc(C2=C(c3ccc(S(C)(=O)=O)cc3)C(C)(C)OC2=O)ccc1-c1cscn1 the melting point was 80.3 °C. CCC(C)c1ccc(NS(=O)(=O)c2ccc(N3CCNC3=O)cc2)cc1 (stereo not drawn) showed a melting point of 157 to 159 °C. In the case of CCOC(=O)N1Cc2sc3ncn(CCCl)c(=O)c3c2C1, the melting point is reported as 169 to 171 °C. N#Cc1ccccc1S(=O)(=O)N1CCCC1c1ccc(F)cc1 (racemic) showed a melting point of 101 °C. O=S(c1ccc(Cl)cc1)c1cc(C(F)(F)F)[nH]c1-c1ccc(Cl)cc1 (stereo not drawn) gave a melting point of 174 to 176 °C. For CN1CCN(C2=Nc3cc(C(F)(F)F)ccc3Nc3nn(C)nc32)CC1, the melting point was 109 to 111 °C. In the case of CC(C)(C)c1ccc(C(=O)Nc2cn3cc(-c4cnco4)ccc3n2)cn1, the melting point is reported as 251 to 253 °C. With Cn1cnc2nc(Oc3ccccc3)nn2c1=S the melting point was 209 to 211 °C. CCC(C(O)C(C)C(O)C(C)CCc1ccc(C)c(O)c1C(=O)O)C1OC(CC)(C2CCC(O)(CC)C(C)O2)CC1C (stereo not drawn) showed a melting point of 151 to 153 °C. Work on O=C1NC(=S)N/C1=C\c1c[nH]c2ncc(-c3ccccc3)cc12 yielded a melting point of 265 to 270 °C. Compound c1ccc(CSc2nc3cnccn3n2)cc1 has a melting point of 93 to 94 °C. Compound COC(=O)Cc1cc(C(C)=O)ccc1OCc1ccccc1 has a melting point of 85 to 87 °C. With CC(=O)Nc1ccc(S(=O)(=O)NCCc2ccccc2)cc1 the melting point was 98 °C. Compound Cc1ccc(C(=O)Nc2ccc(N3CCN(Cc4cccc(C#N)c4)CC3)cc2)c(-c2ccc(C(C)C)cc2)c1 has a melting point of 167 to 169 °C. For COCC1=C(C(=O)NCCCN2CCC(c3ccc(F)cc3)CC2)C(c2ccc(F)c(F)c2)NC(=O)N1 (single isomer, unassigned; (-)), the melting point was 149 to 150 °C. Work on COc1cc(C=CC(=O)c2ccccc2O)cc(OC)c1 yielded a melting point of 110 to 111 °C. In the case of O=c1c(Cl)nc2ccccc2n1-c1ccc(Cl)cc1, the melting point is reported as > 300 °C. CCN(CC)C(=O)C=Cc1ccc(C)c(C)c1 showed a melting point of 36.6 °C. In the case of Cc1ccc(OCc2ccccc2)c(C(CCN2CC3CC3(C)C2)c2ccccc2)c1 (stereo not drawn), the melting point is reported as 74.9 to 76 °C. For CC(=O)OC(c1ccccc1F)c1scnc1C (stereo not drawn), the melting point was 53 to 56 °C. In the case of COc1ccc2ccc3[nH]c4ccc5ccc(OC)cc5c4c3c2c1, the melting point is reported as 133 °C. With Fc1ccc2[nH]c3c(c2c1)CCNC3c1ccc2c(c1)OCO2 (stereo not drawn) the melting point was 172 °C. For COC(=O)c1cc(I)ccc1Nc1ccccc1C(=O)O, the melting point was 230 to 232 °C. Work on O=C1CCC(n2cnc3cc(F)ccc3c2=O)C(=O)N1 (stereo not drawn) yielded a melting point of 296 to 298 °C. CCC(=Cc1ccc(OCCCC(=O)O)c(Cl)c1Cl)[N+](=O)[O-] gave a melting point of 155 to 156 °C. Compound CCOC(=O)C1=C(C)N(C)C(C)=C(C(=O)OC)C1c1cc([N+](=O)[O-])ccc1Cl (stereo not drawn) has a melting point of 164 °C. N#Cc1c2ccccc2cc2c1sc1cccc(-c3cc(Br)c(OCC(=O)O)c(Br)c3)c12 showed a melting point of 259 to 261 °C. Work on O=C(NC(=O)c1c(F)cccc1F)Nc1ccc(SC(F)(F)C(F)Cl)cc1F (stereo not drawn) yielded a melting point of 172 to 173 °C. CC(C)Cn1c(=O)n(C)c(=O)c2c(SCCCO)c(C(=O)c3cccnc3)sc21 showed a melting point of 152 to 155 °C. COc1ccc(Cl)cc1C(=O)N(C)OC gave a melting point of 80 to 83 °C. Work on COC(=O)c1cc2c(nc1C)C(CO)CCCC2 (stereo not drawn) yielded a melting point of 55 to 56 °C. Compound CCOC(=O)C=CC=Cc1cccc2cncn12 has a melting point of 101 to 103 °C. In the case of CN(CCO)C(=O)Cc1ccccc1Cl, the melting point is reported as 77 °C. COc1ccc2c(c1)C(O)(CC#N)C(C)(C)CC2 (stereo not drawn) gave a melting point of 107 to 108 °C. For O=C1c2ccccc2C(=O)N1CCSCc1ccc(C2OCCO2)o1, the melting point was 83 to 85 °C. For O=C(Oc1ccc([N+](=O)[O-])cc1)Oc1ccc2oc3ccccc3c2c1, the melting point was 183 to 185 °C. For CC#CCOc1ccc(S(=O)(=O)C2(C(=O)NO)CCN(C(C)C)CC2)cc1, the melting point was 105 °C. For CN(c1cccc2cc(-c3nc(CC(=O)O)cs3)[nH]c12)S(=O)(=O)c1cccs1, the melting point was 214 to 215 °C. CN(C)CCN(C)c1ccc(Nc2cc(Br)cn(C)c2=O)nc1 gave a melting point of 161 to 163 °C. Work on O=C(c1ccc(Cl)cc1)c1cccc2c1CCCC2C(=O)O (stereo not drawn) yielded a melting point of 152 to 154 °C. In the case of COc1ccc(-c2c(NC(=O)c3cc(C(C)(C)C)c(O)c(C(C)(C)C)c3)cnc3ccc(Cl)cc23)cc1OC, the melting point is reported as 293 to 294 °C. CCCCNc1cc(C(N)=O)cc(S(N)(=O)=O)c1Oc1ccccc1 gave a melting point of 223 to 224 °C. COc1cccc2c1C13CCN(C(=O)C4CCC4)C(C2)C1CCC(=O)C3 (stereo not drawn) showed a melting point of 125 to 126 °C. With O=c1c2cc(F)c(N3CCCC3)cc2n(Cc2ccccc2)c(=O)n1O the melting point was 234 to 236 °C. Work on CCOC(=O)c1cn(-c2cnccn2)cn1 yielded a melting point of 128 to 129 °C. Work on O=C(O)Cn1cc(Cc2nc3c(F)c(F)cc(F)c3s2)c2cc(F)ccc21 yielded a melting point of 193 to 195 °C. Compound Cc1c(Cc2cccc(C(F)(F)F)c2)sc2c(-c3cccc(C(=O)NCCC#N)c3)cccc12 has a melting point of 135 to 136 °C. For COc1ccc2c(c1)CCc1c(C(F)F)nn(-c3ccc(S(N)(=O)=O)cc3)c1-2, the melting point was 256 to 257 °C. With CC(C)c1cccc(C(C)C)c1NC(=O)NC(c1ccccc1)c1ccccc1 the melting point was 245 to 246 °C. For COC(=O)Cc1ccc(OCCNC(=O)C2Cc3ccccc3N2S(=O)(=O)c2ccc(-c3cc(C(F)(F)F)ccc3Cl)cc2)cc1 (stereo not drawn), the melting point was 60 °C. With C#Cc1cc(O)cc2nc(-c3ccc(O)cc3)oc12 the melting point was 229 to 231 °C. Compound OCc1cccc2c(Br)c3ccccc3cc12 has a melting point of 125 to 127 °C. Work on CC1(C(=O)NCc2cccs2)CCCCC1 yielded a melting point of 72 to 73 °C. CC1=C(C#N)C(c2cccc([N+](=O)[O-])c2)n2ccnc2N1 (stereo not drawn) gave a melting point of 278 to 280 °C. For Cc1oc(-c2ccccc2)nc1CCOc1ccc(C[C@H](NC(=O)C=Cc2ccc(F)c(F)c2)C(=O)O)cc1, the melting point was 204 to 206 °C. With COc1ccc2c(c1)CN(S(=O)(=O)NC(Cc1cc3c(N)nccc3s1)C(=O)N1CCC(C)CC1)CC2 (stereo not drawn) the melting point was 175 to 176 °C. Cc1nc2ccccc2n1C gave a melting point of 102 °C. With N#Cc1c(N)nc2ccccc2c1NCc1cccs1 the melting point was 208 °C. CCCc1nn(-c2ccc(C(F)(F)F)cn2)cc1CCCOc1nn(CC)cc1CC(=O)O showed a melting point of 105 to 106 °C. For O=C1C2=C(SCCO2)C(=O)N1c1ccc2ccc(Cl)nc2n1, the melting point was 264 °C. Nc1nc(I)nc2c1ncn2C1OC(CO)C(O)C1O (stereo not drawn) gave a melting point of 141 to 144 °C. Clc1ccc(-c2nc(COc3ccc(CCCn4ccnc4)cc3)co2)cc1 showed a melting point of 116 to 117 °C. Work on Cc1ccccc1C(=O)Nc1ccc(C(=O)N2Cc3ccccc3-c3ccccc32)cc1 yielded a melting point of 190 to 194 °C. NC(=O)CC(CC(N)=O)c1c(Cl)cccc1Cl showed a melting point of 221 to 225 °C. In the case of CN1C(=O)CC[C@]2(C)c3ccc(-c4ccc5c(c4)OCO5)cc3CC[C@@H]12, the melting point is reported as 146 to 152 °C. Compound C#Cc1cccc(NC(=O)C(Cl)Cl)c1 has a melting point of 99 to 100 °C. For N#CC(C#N)(OC(=O)c1ccc(Cl)cc1)c1ccc(Cl)cc1, the melting point was 158 to 159 °C. With O=C(O)CCCc1ccc(CCN(CC=Cc2ccc(Cl)cc2)S(=O)(=O)c2ccc(Cl)cc2)cc1 the melting point was 112 to 113 °C. CCOc1cc(C(=O)O)on1 showed a melting point of 210 to 213 °C. With O=C(Nc1cc2cccnc2cc1N1CCCCC1)c1csc2cncnc12 the melting point was > 300 °C. In the case of COc1cc2c(cc1Nc1ncc(Cl)c(Nc3ccc(N4CCOCC4)cc3OC)n1)C(C)(C)CCC(=O)N2, the melting point is reported as 246 to 248 °C. CC(C)(C)OC(=O)Nc1ccc(-c2ccc(F)cc2)cc1NC(=O)CC(=O)c1sccc1C#N gave a melting point of 156 to 157 °C. CC(C)(C)OC(=O)c1ncn2c1[C@@H]1CC=CN1C(=O)c1c(Cl)cccc1-2 showed a melting point of 235 to 237 °C. CN1C(=O)CN(CCC(=O)O)C1=O showed a melting point of 109 °C. O=c1c2cc(F)c(N3CCCC3)cc2n(-c2ccccc2F)c(=O)n1O gave a melting point of 235 to 237 °C. In the case of CC(C)(N)CCOc1ccc(C2=NNC(=O)CC2)cc1Cl, the melting point is reported as 152 to 156 °C. CC(C)Oc1ccc(OCc2ccccc2)cc1-c1nc2ccc(C#N)nc2[nH]1 gave a melting point of 214 to 215 °C. For Cc1ccc(S(=O)(=O)C2(CC#Cc3ccc(Cl)cc3)CC(=O)NC2=O)cc1 (stereo not drawn), the melting point was 186 to 188 °C. With Fc1ccc(-c2[nH]cc(CCCN3CCN(Cc4ccccc4)CC3)c2-c2ccncc2)cc1 the melting point was 153 to 154 °C. In the case of CCc1noc(CC(=O)N(C)c2ccccc2)n1, the melting point is reported as 53 °C. With COc1ccc(-c2ccc3c(c2)c2ccc(Cl)nc2n3S(=O)(=O)c2ccccc2)cc1 the melting point was 176 to 178 °C. In the case of CN1CCOc2cc(S(=O)(=O)n3c(COC(C)(C)C(=O)O)cc4cc(C(F)(F)F)ccc43)ccc21, the melting point is reported as 148 to 150 °C. Compound COP(=O)(OC)C(O)=Cc1cccc(Cl)c1 has a melting point of 136 to 138 °C. For Cc1cc(OC(F)F)ccc1C(=O)O, the melting point was 117 to 119 °C. CNS(=O)(=O)c1ccc(Oc2ccc(Cl)cc2)cc1 showed a melting point of 80 to 83 °C. In the case of CNc1cc(F)ccc1C(=O)CS(=O)(=O)NC, the melting point is reported as 140 to 142 °C. Work on CCOC(=O)C1N=CSC12CCN(Cc1ccccc1)CC2 (stereo not drawn) yielded a melting point of 67 to 68 °C. Work on Cn1cccc1-c1nc2c(N[C@H]3[C@@H](C(N)=O)[C@@H]4C=C[C@H]3C4)c(Br)cnc2[nH]1 yielded a melting point of 293 to 295 °C. With CC(C)(C)C1CCC2(CC1)CC(=NO)CO2 (stereo not drawn) the melting point was 118 °C. Compound O=[N+]([O-])c1ccccc1NCCCCCCCCCCCCNc1ccccc1[N+](=O)[O-] has a melting point of 79 to 80 °C. For NS(=O)(=O)c1ccc(-c2c(-c3ccccc3)noc2Cl)cc1, the melting point was 186 to 187 °C. With COc1cccc(CNC(=O)c2nc3scc(CC(=O)O)c3c(=O)[nH]2)c1 the melting point was 228 to 229 °C. COC(=O)C1CNC(CCc2ccccc2)=N1 (racemic) showed a melting point of 136 to 141 °C. CCOC(=O)N1CC[C@H](O)[C@@H]1C(c1ccccc1)c1ccccc1 (relative stereo) showed a melting point of 104 to 105 °C. With CC(C)(C)OC(=O)N1[C@@H](Cc2cccc([Si](C)(C)C)c2)C(=O)O[C@H](c2ccccc2)[C@@H]1c1ccccc1 the melting point was 88 to 90 °C. Work on Cc1ccc(C2CN(c3cc4nc5c(cc4cc3F)c(=O)c(C(=O)O)cn5C)CCN2)cc1C (racemic) yielded a melting point of 276 °C.
